Assay results published in patent US6207666A, “Method for treating a patient having precancerous lesion with 4-phenylphthalazine derivatives” (Cell Pathways, Inc., priority 1998, dated 2001).

Legend:
[1] = test system: mammary lesions (mouse mammary gland organ culture); assay: DMBA-induced mammary lesions in mouse mammary gland organ culture; type: cell-based, mouse (female BALB/c); conditions: for Glands with Lesions: vehicle 11 of 15; for Percent Incidence (mammary lesions): vehicle 73.33
Method: Compound No. 17 was also tested for its ability to inhibit the incidence of mammary lesions in an organ culture system. This mouse mammary gland organ culture technique has been successfully used by other investigators to study the effects of known cancer-chemopreventative agents such as retinoids and selenium.
Female BALB/c mice, 28 days old, were treated for nine days with a combination of […] of estradiol and 1 mg of progesterone daily, in order to prime the glands to be responsive to hormones in vitro. The animals were sacrificed and thoracic mammary glands were excised aseptically and incubated for ten days in growth media supplemented with growth-promoting hormones: insulin, prolactin, and hydrocortisone, at 5 μg/ml each and aldosterone at 1 μg/ml. A twenty-four hour treatment of 7,12-dimethylbenz(a)anthracene (DMBA, 2 μg/ml) was carried out between days three and four to induce the formation of mammary lesions. Fully developed glands were deprived of prolactin, hydrocortisone, and aldosterone for 14 days, resulting in the regression of the glands but not the mammary lesions.
In order to evaluate the effects of Compound No. 17, it was dissolved in DMSO and added to the culture media supplemented for the duration of the culture period. At the end of the culture period, the glands were fixed in 10%. formalin, stained with alum carmine, and mounted on glass slides. The incidence of forming mammary lesions is the ratio of the glands with mammary lesions and glands […]. The incidence of mammary lesions in compound 17 treated glands was compared with that of the untreated glands.
The extent of the area occupied by the mammary lesions was quantitated by projecting an image of the gland onto a digitation pad. The area covered by the gland was traced on the pad and considered as 100% of the area. The space covered by each of the unregressed structures was also outlined on the digitization pad and quantitated by the computer.

HT-29 cells = assay: Apoptosis and necrosis by fluorescent microscopy (acridine orange and ethidium bromide) in confluent HT-29 cultures; type: cell-based, human
Method: Drug stock solutions were made in 100% DMSO then diluted with RPMI media for cell culture testing. All drug solutions were prepared fresh on the day of testing. The cultured cells were obtained at passage #118 and grown in RPMI media supplemented with 5% fetal calf serum, and 2 mM glutamine, 100 U/ml penicillin, 100 U/ml streptomycin, and 0.25 μg/ml amphotericin. The cultures were maintained in a humidified atmosphere of 95% air and 5% CO2 at 37° C. The cultures were passaged at preconfluent densities using a solution of 0.05% trypsin and 0.53 mM EDTA. All experiments involved HT-29 cells between passages 120 and 140. Cells were plated at the following densities to obtain cultures used for the experiments: 500 cells/well for 96 well flat-bottom microtiter plates, 1×10^6 cells per 25 cm^2 flask, or 4×10^6 cells per 75 cm^2 flask. Apoptosis and necrosis were measured using an assay which allowed for the simultaneous measurement of both types of cell death based on morphological characteristics of apoptotic cells (i.e., condensed chromatin) and membrane permeability. Drug preparation and cell culture conditions were the same as above. Confluent cultures were assayed for apoptosis and necrosis by fluorescent microscopy following labeling with acridine orange and ethidium bromide. Floating and attached cells were collected by trypsinization and washed three times in PBS. One ml aliquots of 1×10^6 cells were centrifuged (300 g). The pellet was resuspended in 25 μl media and 1 μl of a dye mixture containing 100 μg/ml acridine orange and 100 μg/ml ethidium bromide prepared in PBS and mixed gently. Ten μl of mixture was placed on a microscope slide and with a 22 mm^2 coverslip and examined under 40 x dry objectives using epilumination and filter combination. An observer blinded to the identity of the treatments scored at least 100 cells per sample. Apoptotic cells were identified by nuclear condensation of chromatin stained by the acridine orange or ethidium bromide. Necrotic cells were identified by uniform labeling of the cell with ethidium bromide. Data was also obtained, under the same procedure above, for the percent of apoptotic cells induced by treatment with varying concentrations of compound No. 17.

[2] = test system: human colon carcinoma cell line, HT-29; assay: HT-29 tumor cell growth inhibition, Sulforhodamine B (SRB) protein binding assay, six days continuous exposure; type: cell-based; conditions: for SRB Binding (A550): vehicle 0.801 ± 0.137
Method: Compound No. 17, 1-(3-chloroanilino)-4-phenylphthalazine, was assayed for its effect on the human colon carcinoma cell line, HT-29 obtained from ATCC, (Rockville, Md.) to ascertain the degree of growth inhibition. Growth inhibition of this cell line is thought to be indicative of a benefit on precancerous lesions and neoplasms. The cell line and growth assay employed for these experiments is well characterized, and is used by the United States National Cancer Institute in its screening program for new anti-cancer drugs.
Drug stock solutions were made in 100% DMSO then diluted with RPMI media for cell culture testing. All drug solutions were prepared fresh on the day of testing. The cultured cells were obtained at passage #118 and grown in RPMI media supplemented with 5% fetal calf serum, and 2 mM glutamine, 100 U/ml penicillin, 100 U/ml streptomycin, and 0.25 μg/ml amphotericin. The cultures were maintained in a humidified atmosphere of 95% air and 5% CO2 at 37° C. The cultures were passaged at preconfluent densities using a solution of 0.05% trypsin and 0.53 mM EDTA. All experiments involved HT-29 cells between passages 120 and 140. Cells were plated at the following densities to obtain cultures used for the experiments: 500 cells/well for 96 well flat-bottom microtiter plates, 1×10^6 cells per 25 cm^2 flask, or 4×10^6 cells per 75 cm^2 flask.
Tumor cell growth inhibition was assessed using the Sulforhodamine B (SRB) protein binding assay. In this assay, tumor cells were plated in 96-well plates and treated with drug-containing media for six days (continuous exposure). For each plate, 6 wells were designated as no treatment controls, six wells as vehicle (0.1% DMSO) controls, and the remaining wells for drug dilutions with six wells per drug concentration. At the end of the exposure period, the cells were fixed and stained with sulforhodamine B, a protein binding dye. The dye was then solubilized, and the optical density of the resulting solution was determined on a 96-well plate reader. The mean dye intensity of the treated wells was then divided by the mean dye intensity in the control wells (6 wells of each) to determine the effect of the drug on the cells. Dye intensity is proportional to the number of cells or amount of protein per well. The resultant "percent inhibition" value then represents the degree of growth inhibition caused by the drug in Table 4 below.

SMILES: Clc1cccc(Nc2nnc(-c3ccccc3)c3ccccc23)c1 [Compound No. 17, 1-(3-Chloroanilino)-4-phenylphthalazine]
- Glands with Lesions ([1]; 10 μM, of 13 glands): 7
- Percent Incidence (mammary lesions) ([1]; 10 μM): 53.85%
- Glands with Lesions ([1]; 100 μM, of 15 glands): 4
- Percent Incidence (mammary lesions) ([1]; 100 μM): 26.67%
- inhibition at 10 µM ([1]; Mus musculus, 10 μM, read-out: Percent Inhibition (mammary lesions)): 27%
- inhibition at 100 µM ([1]; Mus musculus, 100 μM, read-out: Percent Inhibition (mammary lesions)): 64%
- % Apoptotic Cells (HT-29 cells; 1 μM (Table 6), 0 μM gives 4%): 12%
- % Apoptotic Cells (HT-29 cells; 5 μM (Table 6), 0 μM gives 4%): 13%
- % Apoptotic Cells (HT-29 cells; 10 μM (Table 6), 0 μM gives 4%): 7%
- % Apoptotic Cells (HT-29 cells; 25 μM (Table 6), 0 μM gives 4%): 8%
- % Necrotic Cells (HT-29 cells; 40 μM, HT-29, vehicle 2%, none 5%): 6%
- % Apoptotic Cells (HT-29 cells; 40 μM, HT-29, vehicle 9%, none 7%): 83%
- % Apoptotic Cells (HT-29 cells; 50 μM (Table 6), 0 μM gives 4%): 78%
- SRB Binding (A550) ([2]; 1 μM): 0.851 ± 0.059
- SRB Binding (A550) ([2]; 10 μM): 0.007 ± 0.003
- SRB Binding (A550) ([2]; 100 μM): 0.009 ± 0.010
- inhibition at 1 µM ([2]; Homo sapiens, 144 h, 1 μM): 0%
- inhibition at 10 µM ([2]; Homo sapiens, 144 h, 10 μM): 100%
- inhibition at 100 µM ([2]; Homo sapiens, 144 h, 100 μM): 100%
